{
  "source": "patent US20110207760A1",
  "about": "“SN-38 COMPOSITIONS” (priority 2010, published 2011)",
  "key": {"[1]": {"tested_on": "Human Colon Carcinoma LoVo DX Cells", "assay": "Growth of subcutaneous solid tumor of LoVo DX cells in mice", "type": "in vivo, Balb/c mice", "details": "treated group, (SEM); for Tumor volume: SN-38 4.5 mg/kg in 20% SBECD i.p. twice daily; for Tumor volume increase: relative to day 0 of treatment", "from_the_text": "Lovo Dx cells (2.5×10^6 cells per an injection) in culture medium with 30% Matrigel were subcutaneously inoculated at 2 sides of the flank (in the mid-flank) of each of 15 Balb/c mice. 20 days after inoculation the animals were randomly divided into 2 groups: control (8 mice) and treated (7 animals). On day 21, 24, 27 and 30 after inoculation (days 1, 4, 7, and 10 of treatment), twice daily, at 10 am and at 4 pm, the animals received intraperitoneal injections. Control animals received each time injection of 0.49 mL of 0.9% saline. Treated animals received each time injection of SN-38 solution in 20% SBECD (w/w), 4.5 mg/kg of SN-38. The SN-38 solution for the treatment was prepared by the dilution of concentrated composition of the Example 1 with water. Tumor sizes and body weight of each animal was monitored during treatment. The results represented as average tumor volume estimated from measurements of tumor diameters (V=0.5*D1*D2*D2, where Dl and D2 are longer and shorter diameter of the tumor) are presented in Table 7 below (the standard error of mean is in parentheses)."}, "[2]": {"biological_target": "T1, topoisomerase I enzyme (Homo sapiens, UniProt P11387)", "T1 sequence (P11387 1-765)": "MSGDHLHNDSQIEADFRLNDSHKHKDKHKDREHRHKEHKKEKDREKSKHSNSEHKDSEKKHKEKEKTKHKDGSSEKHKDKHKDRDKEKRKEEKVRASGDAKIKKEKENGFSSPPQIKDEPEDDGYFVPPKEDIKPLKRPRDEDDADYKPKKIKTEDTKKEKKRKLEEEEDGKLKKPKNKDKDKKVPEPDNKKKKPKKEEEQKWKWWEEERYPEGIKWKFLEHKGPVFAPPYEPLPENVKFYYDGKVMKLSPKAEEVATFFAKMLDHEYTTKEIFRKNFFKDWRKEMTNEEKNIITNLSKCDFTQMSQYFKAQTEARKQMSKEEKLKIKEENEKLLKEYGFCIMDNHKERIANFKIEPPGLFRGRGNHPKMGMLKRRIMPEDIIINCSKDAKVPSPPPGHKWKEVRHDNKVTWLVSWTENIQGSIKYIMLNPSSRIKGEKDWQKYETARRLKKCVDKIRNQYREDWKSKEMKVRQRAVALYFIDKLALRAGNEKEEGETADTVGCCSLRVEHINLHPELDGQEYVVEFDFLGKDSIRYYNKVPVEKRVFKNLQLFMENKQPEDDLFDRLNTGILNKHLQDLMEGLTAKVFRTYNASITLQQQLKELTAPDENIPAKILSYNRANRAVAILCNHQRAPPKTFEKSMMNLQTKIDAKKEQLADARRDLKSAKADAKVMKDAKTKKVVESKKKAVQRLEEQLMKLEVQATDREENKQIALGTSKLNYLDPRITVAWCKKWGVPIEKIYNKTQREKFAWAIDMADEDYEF", "details": "estimated; times more active than irinotecan; cited from earlier work"}},
  "data": [
    {"smiles": "CCc1c2c(nc3ccc(O)cc13)-c1cc3c(c(=O)n1C2)COC(=O)[C@]3(O)CC", "note": "[SN-38, (4S)-4,11-Diethyl-4,9-dihydroxy-1H-pyrano[3′,4′:6,7]indolizino[1,2-b]quinoline-3,14(4H,12H)dione]", "values": [
      {"measurement": "Tumor volume", "setting": "[1]; day 0 of treatment", "result": "0.123 (0.010) cm^3"},
      {"measurement": "Tumor volume", "setting": "[1]; day 4 of treatment", "result": "0.128 (0.010) cm^3"},
      {"measurement": "Tumor volume", "setting": "[1]; day 6 of treatment", "result": "0.140 (0.011) cm^3"},
      {"measurement": "Tumor volume", "setting": "[1]; day 8 of treatment", "result": "0.142 (0.012) cm^3"},
      {"measurement": "Tumor volume", "setting": "[1]; day 11 of treatment", "result": "0.163 (0.017) cm^3"},
      {"measurement": "Tumor volume", "setting": "[1]; day 13 of treatment", "result": "0.185 (0.019) cm^3"},
      {"measurement": "Tumor volume", "setting": "[1]; day 15 of treatment", "result": "0.195 (0.020) cm^3"},
      {"measurement": "Tumor volume", "setting": "[1]; day 18 of treatment", "result": "0.217 (0.024) cm^3"},
      {"measurement": "Tumor volume", "setting": "[1]; day 20 of treatment", "result": "0.284 (0.040) cm^3"},
      {"measurement": "Tumor volume", "setting": "[1]; day 22 of treatment", "result": "0.349 (0.055) cm^3"},
      {"measurement": "Tumor volume increase", "setting": "[1]; day 0", "result": 100, "unit": "Percentage"},
      {"measurement": "Tumor volume increase", "setting": "[1]; day 4", "result": "105 (4) Percentage"},
      {"measurement": "Tumor volume increase", "setting": "[1]; day 6", "result": "115 (6) Percentage"},
      {"measurement": "Tumor volume increase", "setting": "[1]; day 8", "result": "117 (7) Percentage"},
      {"measurement": "Tumor volume increase", "setting": "[1]; day 11", "result": "133 (11) Percentage"},
      {"measurement": "Tumor volume increase", "setting": "[1]; day 13", "result": "150 (10) Percentage"},
      {"measurement": "Tumor volume increase", "setting": "[1]; day 15", "result": "157 (10) Percentage"},
      {"measurement": "Tumor volume increase", "setting": "[1]; day 18", "result": "175 (12) Percentage"},
      {"measurement": "Tumor volume increase", "setting": "[1]; day 20", "result": "224 (22) Percentage"},
      {"measurement": "Tumor volume increase", "setting": "[1]; day 22", "result": "271 (29) Percentage"},
      {"measurement": "activity relative to irinotecan", "setting": "[2]", "result": "up to 1000 times"}
    ]}
  ]
}
